Assay results taken from patent publication US20020049151A1, “Therapeutic approaches to diseases by suppression of the NURR subfamily of nuclear transcription factors” (priority 2000, published 2002).
Ends that are not written are not given here.

Legend:
[1] = system: NURR1 mRNA; assay: Northern blot of NURR1 mRNA in synovium explants; format: cell-based, human; conditions: CRH 10^−8 M
Experimental: (§1) To determine whether the NURR subfamily contribute to CRH signaling in a pathological context, freshly excised RA (FIG. 4A) and PsA synovium explants were incubated with CRH (10^−8 M) and examined for its ability to induce expression of NURR1 and NUR77 transcripts. […] Furthermore, analysis of synovium explants indicates higher endogenous and CRH-inducible NURR1 mRNA compared to NUR77 transcript levels.
(§2) In FIG. 4 total RNA was extracted and northern blot analysis was performed. Filters were hybridized with a cDNA for NURR1 or NUR77 and also with GAPDH to control for loading and transfer. Synovial explants were left untreated [C] or incubated with 10^−8M CRH for the indicated times. (FIG. 4A) Confluent monolayers of primary synoviocytes were left untreated [C] or pretreated with 10^−8M dexamethasone (DEX) for 2 h prior to the addition of 25μM forskolin (FOR) or 20 ng/ml of phorbal myristic acetate (PMA). (FIG. 4B)
(§3) For FIG. 6 each membrane was reprobed with a GAPDH cDNA to control for loading and transfer. NURR1 mRNA levels were measured by northern analysis using total RNA extracted from synoviocytes left untreated [C] or cultured for the time indicated with (A) TNFα (10 ng/ml) in the presence or absence of pre-treatment with 10^−8M dexamethasone (DEX). (B) IL-1β(10 ng/ml) in the presence or absence of pretreatment with 2 μM indomethacin (INDO) or 10^−8M DEX. (C) or synovial explants cultured with IL-6 (10 ng/ml). (D) 1 μM PGE2. (E) 25 μM forskolin (FOR) or […] for 1h in the absence or presence of 5 µg/ml cycloheximide (CHX).
(§4) Total RNA was isolated from cultured primary synoviocytes or synovial explants. RNA was quantitated by UV absorption and 10 μg of total RNA were electrophoresed on a standard northern gel and transferred to nylon membrane (BioRad, Richmond, Calif.). NURR1 and NUR77 cDNA probes (Murphy and Conneely, 1997), spanning the amino terminal region to avoid cross-hybridization, were radiolabeled to a high specific activity using [α-^32P] dCTP and a random primer labeling system (Promega, Madison, Wis.). Blots were exposed to film at −80° C. using intensifying screens and autoradiographic intensity was quantitated using an imaging densitometer.

[2] = system: NUR77 mRNA; assay: Northern blot of NUR77 mRNA in synovium explants; format: cell-based, human; conditions: CRH 10^−8 M
Experimental: as §1, §2, §4

[3] = system: NURR1 mRNA; assay: Northern blot of NURR1 mRNA in primary synoviocytes; format: cell-based, human; conditions: for NURR1 mRNA levels after stimulation: 20 ng/ml PMA, 10 ng/ml TNFα, IL-1β, IL-6, 1 μM PGE2, CRH; for effect on IL-1β-induced NURR1 mRNA: IL-1β 10 ng/ml, indomethacin 2 μM
Experimental: (§5) Regulation of gene expression by the protein kinase A and C pathways represent important signaling events in RA synoviocytes (Ben-Av et al., 1995; Crofford et al., 1994; Firestein and Manning, 1999). […] To investigate the involvement of the protein kinase C signaling pathways in NURR regulation, synoviocytes were treated with phorbal myristic acetate (PMA). […] In contrast, dexamethasone had little effect on forskolin- or PMA-induced NUR77 levels.
as §2
Therefore the pathological importance of the NURR transcription factors in inflammatory joint disease was further examined by determining the ability of pro-inflammatory agonists to regulate NURR transcript levels in primary synoviocytes and synovium explant tissue (FIG. 6).
as §3
Northern analysis of primary RA synoviocytes were untreated (lane 1) or treated for 1 hour with TNFα (lane 2), IL-1β (lane 3), and PGE2 (lane 4). TNFα and IL-1β were used at a concentration of 10 ng/mL and PGE2 was at a concentration of 10^-6 M.
as §4

[4] = system: NUR77 mRNA; assay: Northern blot of NUR77 mRNA in primary synoviocytes; format: cell-based, human; conditions: 25 μM forskolin, 20 ng/ml PMA, CRH
Experimental: as §5
In FIG. 4 total RNA was extracted and northern blot analysis was performed. Filters were hybridized with a cDNA for NURR1 or NUR77 and also with GAPDH to control for loading and transfer. Synovial explants were left untreated [C] or incubated with 10^−8M CRH for the indicated times. […]
Dexamethasone (10^−8M) inhibited the TNFα, IL-1β (FIGS. 6A and B) and PGE2-stimulated NURR1 MRNA in synoviocytes and CRH-induced NURR1 expression in synovium explants. […] For each northern blot shown in FIG. 6, NUR77 mRNA levels were also analyzed. […]
Total RNA was isolated from cultured primary synoviocytes or synovial explants. RNA was quantitated by UV absorption and 10 μg of total RNA were electrophoresed on a standard northern gel and transferred to nylon membrane (BioRad, Richmond, Calif.). […] Blots were exposed to film at −80° C. using intensifying screens and autoradiographic intensity was quantitated using an imaging densitometer.

[5] = system: CRH R1; conditions: cited from earlier work
[6] = dexamethasone 10^−8M, cycloheximide 5 µg/ml

In the case of “CRH: Corticotropin Releasing Hormone, a major regulator of the hypothalamic pituitary axis (SEEPPISLDLTFHLLREVLEMARAEQLAQQAHSNRKLMEII; ends and bridges not checked; UniProt P06850 154-194, looked up)”, the “NURR1 mRNA induction in synovium explants” value ([1]; RA and PsA synovium explants, IL-6 10 ng/ml) is reported as “rapidly induced”, the “time to NURR1 mRNA induction” value ([1]; synovium explants) is reported as no more than 1 h and the “time to decline of NURR1 mRNA to basal levels” value ([1]; synovium explants) is reported as no more than 3 h. The “NUR77 mRNA induction in synovium explants” value ([2]; RA and PsA synovium explants) was “rapidly induced”, the “time to NUR77 mRNA induction” value ([2]; synovium explants) was no more than 1 h and the “time to decline of NUR77 mRNA to basal levels” value ([2]; synovium explants) was no more than 3 h. The “NURR1 mRNA levels after stimulation” value ([3]; 25 μM forskolin) was “not observed” and the “NUR77 mRNA levels after stimulation” value [4] was “not observed”.

In the case of `COc1ccc2c(c1)c(CC(=O)O)c(C)n2C(=O)c1ccc(Cl)cc1` [indomethacin], the “effect on IL-1β-induced NURR1 mRNA” value ([3]; dexamethasone 10^−8M) is reported as “not blocked”.

With `C[C@@H]1C[C@H]2[C@@H]3CCC4=CC(=O)C=C[C@]4(C)[C@@]3(F)[C@@H](O)C[C@]2(C)[C@@]1(O)C(=O)CO` [dexamethasone] the “basal / endogenous NURR1 expression” value [3, 6] was “no effect”.

With `CCCCCCCCCCCCCC(=O)O[C@@H]1[C@@H](C)[C@@]2(O)[C@@H](C=C(CO)C[C@]3(O)C(=O)C(C)=C[C@@H]23)[C@@H]2C(C)(C)[C@]12OC(C)=O` [PMA, phorbal myristic acetate, reference compound] the “NURR1 mRNA levels after stimulation” value ([3]; 25 μM forskolin) was “no stimulatory effects” and the “NUR77 mRNA levels after stimulation” value [4] was “modestly up-regulated”.

With `C[C@@H]1C[C@@H]([C@H](O)CC2CC(=O)NC(=O)C2)C(=O)[C@@H](C)C1` [Cycloheximide, cycloheximide] the “effect on forskolin-induced NURR1 expression” value ([3]; 25 μM forskolin, dexamethasone 10^−8M pre-treatment 2 h, cycloheximide 5 µg/ml) was “robustly enhanced”, the “effect on IL-1β-induced NURR1 mRNA” value ([3]; dexamethasone 10^−8M) was “robustly enhanced” and the “effect on TNFα-stimulated NURR1 mRNA” value ([3]; TNFα 10 ng/ml, dexamethasone 10^−8M) was “robustly enhanced”. For the same compound, the “basal / endogenous NURR1 expression” value [3, 6] was “increased” and the “effect on PGE2-stimulated NURR1 mRNA” value ([3]; dexamethasone 10^−8M, cycloheximide 5 µg/ml, 1M PGE2 for 1h) was “robustly enhanced”.

For `CCCCN(CC)c1nc(C)nc2c1c(C)c(C)n2-c1c(C)cc(C)cc1C` [antalarmin], the “CRH antagonism at sites of inflammation in vivo” value [5] is given as “clinically effective CRH antagonist at sites of inflammation”.
